Assay results reported in patent publication US12691114B2, “Compositions for inhibition of herpesviruses” (The Medical College of Wisconsin, Inc., priority 2020, dated 2026).

Experiments:
in vitro = details: human
Description: Cytotoxicity assay: MTT assay was performed as described by manufacturer's instructions (Sigma-Aldrich). Non-infected cells were treated with compounds for 72 h or 10 days (same time points of the antiviral assay), and 20 μL/well of MTT [3-(4, 5-Dimethyl-2-thiazolyl)-2, 5-diphenyl-2H-tetrazolium bromide], 5 mg/mL in phosphate buffered saline (PBS)] was added to each well. After shaking at 150 rpm for 5 min the plates were incubated at 37° C. for 2-3 h. Conversion of yellow solution to dark blue formazan by mitochondrial dehydrogenases of living cells was quantified by measuring absorbance at 560 nm.
HCMV inhibition was measured by luciferase activity of pp28-recombinant Towne and pp28 GCV-resistant Towne strains of HCMV (72 hpi) and by plaque reduction using HCMV Towne or TB40 (10 days). Viral protein expression was measured by Western blot.

HSV1 clinical isolate = test: Plaque reduction assay, HSV1 in Vero cells; assay type: cell-based, Human Herpesvirus 1; details: Human alphaherpesvirus 1, Vero, read-out: EC50—HSV1-C1 (μM)
Excerpt: (§1) Viruses and antiviral assays: A recombinant pp28-luciferase Towne HCMV strain expressing luciferase under the control of the UL99 (pp28) late promoter was reported to provide a highly-sensitive and reproducible reporter for drug screening^20. A GCV-resistant HCMV pp28-luciferase that contains a C607Y mutation in UL97 was reported^37. The HCMV TB40 strain was obtained from ATCC (VR-1578). Clinical isolates of Human Herpesvirus 1 and 2 (HSV1, HSV2) were collected from the Johns Hopkins Microbiology laboratory without identifiers that could link them to a specific patient. Mouse CMV (MCMV) Smith strain (ATCC VR-1399) was used for infection of MEFs.
(§2) Plaque reduction assay: HFFs were seeded into 12-well plates (2×10^5 cells/well) and infected with HCMV TB40 at approximately 100 plaques/well. After 90 min, media were aspirated, and DMEM containing 0.5% carboxymethyl-cellulose (CMC), 4% fetal bovine serum (FBS), and drugs were added into duplicate wells. Following incubation at 37° C. for 10-12 days the overlay was removed, and plaques were counted after crystal violet staining. For HSV1 and HSV2 replication in Vero cells, the adsorption time was 60 min and plaques were counted after 36 h. Plaque assays in MEFs were completed after 3 days.
(§3) Inhibition of other herpesviruses: Inhibition of herpes simplex 1 and 2 (HSV1, HSV2), Epstein Barr virus (EBV) and mouse CMV (MCMV) was tested with the five compounds. Plaque reductions assays were used for HSV1, HSV2 and MCMV. Inhibition of lytic EBV replication was measured by real-time PCR in AKATA cells following IgG induction. Only MLS8554 was active against HSV1, HSV2 and MCMV (Table 2).

HSV2 clinical isolate = test: Plaque reduction assay, HSV2 in Vero cells; assay type: cell-based, Human Herpesvirus 2; details: Human alphaherpesvirus 2, Vero, read-out: EC50—HSV2-C1 (μM)
Excerpt: as §1, §2, §3

Epstein Barr Virus (EBV) = test: Inhibition of lytic EBV replication in Akata cells, real-time PCR of BALF5; assay type: cell-based; details: human gammaherpesvirus 4, IgG induction, real-time PCR at 48 hours, NA = Not active
Description: Inhibition of lytic Epstein Barr Virus (EBV) replication: Akata cells (0.5×10^6/well of 24-well plate) latently infected with EBV were induced with 100 μg/ml of goat antihuman IgG (Sigma). Compounds and GCV control were added to triplicate wells immediately after the addition of human IgG. Cells were collected 48 hours after lytic induction for DNA quantification. Cellular DNA was purified using Wizard SV Genomic Kit (Promega, Madison, WI). The effect of the compounds on lytic induction of EBV was analyzed by real-time PCR of the EBV DNA polymerase gene, BALF5^38.
as §3

[1] = test system: Mouse CMV (MCMV) Smith strain; test: Plaque assay, mouse CMV in MEFs; assay type: cell-based, mouse cytomegalovirus; details: Murid betaherpesvirus 1; plaque reduction, MEFs; NA = Not active
Excerpt: as §1, §2, §3

[2] = test system: pp28-luciferase Towne HCMV; test: Drug combination with GCV, pp28-luciferase Towne, Bliss model; assay type: cell-based, human cytomegalovirus; details: Human betaherpesvirus 5, read-out: EC50 of Compound 1 (GCV), pp28-luciferase Towne, MOI=1, 72 hpi; one value per combination experiment
Description: (§4) Drug combination and analysis: These experiments were performed as previously reported^40. The combination of GCV and each compound was tested using the pp28-luciferase. Briefly, 2×10^6 HFFs/plate were seeded in 96-well plates and infected with the pp28-luciferase Towne HCMV strain (MOI=1). First, a dose response curve was generated for each drug individually to determine its EC50. Then, drugs were combined at twice their EC50, diluted in DMEM with 4% FBS, followed by serial dilution and added together after infection. Luciferase activity of the combination and each drug individually was quantified at 72 hpi. The combination of letermovir and each of the new compounds was tested by the plaque assay using TB40. The same principle applied in this assay for the drug combination effect, and plaques were counted at 8 dpi. The Bliss model was used to calculate the effect of each drug combination on pp28-luciferase activity and plaque reduction. In this model, drug combination represents the product of two probabilistically independent events as described in the following equation^41.
(§5) [formula] Where D is the drug concentration, m is the slope, and EC50 is the effective concentration resulting in 50% virus inhibition. The combined effect of two inhibitors (Fu, fractional unaffected) is computed as the product of individual effects of the two inhibitors, Fu1 and Fu2. If the ratio of observed fold inhibition divided by the expected fold inhibition is greater than 1, the compounds are synergistic. If the ratio is less than 1, the combination is considered antagonistic, and if it equals to 1 the combination is additive.
(§6) Pattern of drug combination with GCV and letermovir: The effect of each compound alone or in combination with GCV or letermovir was tested in HCMV-infected HFFs. […] For letermovir and its combination with each of the five compounds the EC50 was determined based on plaque assay. […] All other combinations and Bliss coefficients were measured by pp28- luciferase.

HCMV = test: Drug combination of GCV and 2955 by plaque assay, Bliss model; assay type: cell-based, human cytomegalovirus; details: Human betaherpesvirus 5; combination experiment with NCGC2955, plaque assay; read-out: EC50 of Compound 1 (GCV)
Description: as §4, with “In this model, drug combination represents the product of two probabilistically independent events as described in the following equation^41.” left out
as §6

[3] = test system: HCMV Towne entry into HFFs; test: HCMV entry, indirect immunofluorescence assay for pp65; assay type: cell-based; details: pretreatment 24 h: MLS8969 3 μM, Heparin 30 μM, GCV 5 μM; IFA 2 hpi
Description: HCMV entry and indirect immunofluorescence assay: MLS8969, GCV and heparin control were used to determine inhibition of HCMV entry. Compounds were diluted in serum-free media and added to HFFs seeded on chamber slides 24 h prior to infection. After infection (MOI 1 or 0.1 PFU/cell) for 2 h, cells were fixed with 100% chilled methanol, blocked for 1 h with phosphate-buffered saline (PBS), 5% serum, 0.3% Triton X-100. Cells were then incubated with mouse monoclonal anti-pp65 antibody, 1:50 (Vector Laboratories, Burlingame, CA) at 37° C. in humidified chambers for 1 h, washed three times with TBST (0.1%), incubated with rhodamine-conjugated anti-mouse IgG, 1:500 (Sigma) at 37° C. in humidified chambers for 1 h and washed with TBST (0.1%). A drop of mount oil containing DAPI (Santa Cruz Biotechnology, Santa Cruz, CA) was added to the slides before visualization with a Zeiss ZI fluorescence microscope. Images were captured at 40× magnification.

HCMV TB40 = test: Drug combination with letermovir, plaque assay TB40, Bliss model; assay type: cell-based, human cytomegalovirus; details: Human betaherpesvirus 5, read-out: EC50 of Compound 1 (Letermovir)
Description: as §4, §5
Pattern of drug combination with GCV and letermovir: The effect of each compound alone or in combination with GCV or letermovir was tested in HCMV-infected HFFs. […] A ratio of observed fold inhibition divided by the expected fold inhibition of >1 was considered drug synergy, <1 as drug antagonism, and =1 as additive. For letermovir and its combination with each of the five compounds the EC50 was determined based on plaque assay. The combination of GCV and 2955 was also tested by plaque assay. All other combinations and Bliss coefficients were measured by pp28- luciferase.

Molecule	CC50 (in vitro)	EC50 (HSV1 clinical isolate)	EC50 (HSV2 clinical isolate)	EC50 (Epstein Barr Virus (EBV))	EC50 [1]	EC50 [2]	EC50 (HCMV)	inhibition of HCMV entry (pp65 nuclear staining), in words [3]	EC50 (HCMV TB40)
Nc1nc(O)c2ncn(COC(CO)CO)c2n1 [GCV, ganciclovir, reference compound]	> 200000 nM	0.04 µM	0.58 µM	5200 ± 400 nM	960 ± 100 nM	1330 nM	770 ± 80 nM	did not affect pp65 nuclear staining	
COc1cccc(N2CCN(C3=Nc4c(F)cccc4[C@H](CC(=O)O)N3c3cc(C(F)(F)F)ccc3OC)CC2)c1 [Letermovir, letermovir, reference compound]									1.1 nM
Heparin								inhibited HCMV entry	
